Measured values from patent publication US20230129359A1, “MUSCARINIC RECEPTOR 4 ANTAGONISTS AND METHODS OF USE” (Neurocrine Biosciences, Inc., priority 2020, published 2023).

Molecular target: T1, human M4 receptor (Homo sapiens, UniProt P08173)
T1 construct: expressed in transfected cells; host or cells: CHO cells
T1 sequence (P08173 1-479): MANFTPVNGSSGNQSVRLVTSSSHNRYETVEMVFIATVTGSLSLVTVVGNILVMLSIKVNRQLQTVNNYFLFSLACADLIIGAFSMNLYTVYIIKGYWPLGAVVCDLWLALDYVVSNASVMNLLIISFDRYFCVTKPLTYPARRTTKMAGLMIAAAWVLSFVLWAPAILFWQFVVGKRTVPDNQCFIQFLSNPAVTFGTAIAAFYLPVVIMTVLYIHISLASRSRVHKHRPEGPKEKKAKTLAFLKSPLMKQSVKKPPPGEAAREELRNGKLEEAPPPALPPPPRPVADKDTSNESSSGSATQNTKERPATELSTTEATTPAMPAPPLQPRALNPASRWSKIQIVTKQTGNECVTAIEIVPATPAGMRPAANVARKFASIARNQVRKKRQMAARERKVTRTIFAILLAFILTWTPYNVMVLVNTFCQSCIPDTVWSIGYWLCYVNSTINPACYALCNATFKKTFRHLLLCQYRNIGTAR
Experiment: Radioligand ([3H]N-methylscopolamine) binding assay, membranes from CHO cells expressing human M4 receptor
Settings: Ki against human M4 receptor; membranes from CHO cells; tritiated N-methylscopolamine 1.5 nM; read-out: K
Protocol: Binding affinity (Ki) for the compounds was measured by inhibition of radioligand binding to membranes from CHO cells expressing human M4 receptor. Membranes were prepared by nitrogen cavitation and differential centrifugation as previously described (Hoare et al., Mol. Pharmacol. 2003 March; 63(3): 751-65). The radioligand employed was tritiated N-methylscopolamine, used at a concentration of 1.5 nM. A dose-response of twelve concentrations of compound was used, ranging from […]. The assay buffer was 50 mM HEPES, 100 mM NaCl, 5 mM MgCl2, 1 mM ethylenediaminetetraacetic acid, pH-adjusted to pH 7.4. Membranes, radioligand and compound were incubated together for 90 minutes at 37° C., in a total volume of 150 μL in a 96-well plate. Receptor-bound radioligand was then collected by harvesting the assay over glass fiber filters pretreated with polyethylenimine to trap the cell membranes, using rapid vacuum filtration. Harvesting and radioactivity counting was conducted as previously described (see, e.g., Hoare et al., Mol. Pharmacol. 2003 63(3):751-65); Erratum at Mol. Pharmacol. 2005 July; 68(1): 260).

Compared with `C[C@@H]1CN(c2ccc(C(F)(F)F)nc2)C[C@H](C)N1C(=O)OC1CC2(C1)CN(Cc1ccccc1)C2` [Compound 191, 2-bnezyl-2-azaspiro[3.3]heptan-6-yl (2R,6S)-2,6-dimethyl-4-[6-(trifluoromethyl)pyridin-3-yl]piperazine-1-carboxylate], `C[C@@H]1CN(c2ccc([N+](=O)[O-])cn2)C[C@@H](C)N1C(=O)OC1CC2(C1)CN(Cc1ccccc1)C2` [Compound 164, 2-benzyl-2-azaspiro[3.3]heptan-6-yl (2R,6R)-2,6-dimethyl-4-(5-nitropyridin-2-yl)piperazine-1-carboxylate] is higher in Ki: 10 to 100 nM for the first, 100 to 1000 nM for the second.

First: [2H]c1c([2H])c([2H])c(C([2H])N2CC3(CC(NC(=O)N4[C@H](C)CN(c5ncc(C(F)(F)F)cn5)C[C@@H]4C)C3)C2)c([2H])c1[2H] (stereo partly drawn) [Compound 274, (2R,6S)-2,6-dimethyl-N-{2-[(^2H5)phenyl(^2H1)methyl]-2-azaspiro[3.3]heptan-6-yl}-4-[5-(trifluoromethyl)pyrimidin-2-yl]piperazine-1-carboxamide]
Second: C[C@@H]1CN(c2ncc(C(F)(F)F)cn2)C[C@@H](C)N1C(=O)NC1CC2(C1)CN(Cc1ccc(F)cc1)C2 [Compound 328, (2R,6R)-N-{2-[(4-fluorophenyl)methyl]-2-azaspiro[3.3]heptan-6-yl}-2,6-dimethyl-4-[5-(trifluoromethyl)pyrimidin-2-yl]piperazine-1-carboxamide]
The Ki of the first is lower: less than 10 nM for the first, 10 to 100 nM for the second. The first binds more tightly here.

Compared with `C[C@@H]1CN(c2ncc(C#N)cn2)C[C@H](C)N1C(=O)OC1CC2(C1)CN(Cc1ccc(Cl)cc1)C2` [Compound 475, 2-[(4-chlorophenyl)methyl]-2-azaspiro[3.3]heptan-6-yl (2R,6S)-4-(5-cyanopyrimidin-2-yl)-2,6-dimethylpiperazine-1-carboxylate], `C[C@@H]1CN(c2ncc3ccccc3n2)C[C@H](C)N1C(=O)OC1CC2(C1)CN(Cc1ccc(F)cc1)C2` [Compound 392, 2-[(4-fluorophenyl)methyl]-2-azaspiro[3.3]heptan-6-yl (2R,6S)-2,6-dimethyl-4-(quinazolin-2-yl)piperazine-1-carboxylate] is lower in Ki: 10 to 100 nM for the first, less than 10 nM for the second. The second binds more tightly here.

Compared with `C[C@@H]1CN(c2ncc(C(F)(F)F)cn2)C[C@H](C)N1C(=O)OC1CC2(C1)CN(CC1CC3C=CC1C3)C2` (stereo partly drawn) [Compound 155, 2-{bicyclo[2.2.1]hept-5-en-2-ylmethyl}-2-azaspiro[3.3]heptan-6-yl (2R,6S)-2,6-dimethyl-4-[5-(trifluoromethyl)pyrimidin-2-yl]piperazine-1-carboxylate], `C[C@@H]1CN(c2ncc(C(F)(F)F)cn2)C[C@@H](C)N1C(=O)OC1CC2(C1)CN(CC(C)(C)C)C2` [Compound 146, 2-(2,2-dimethylpropyl)-2-azaspiro[3.3]heptan-6-yl (2R,6R)-2,6-dimethyl-4-[5-(trifluoromethyl)pyrimidin-2-yl]piperazine-1-carboxylate] is higher in Ki: 10 to 100 nM for the first, 100 to 1000 nM for the second.

`C[C@@H]1CN(c2cnc(C(F)(F)F)cn2)C[C@H](C)N1C(=O)NCC1CC2(C1)CN(Cc1ccccc1)C2` [Compound 67, (2R,6S)-N-({2-benzyl-2-azaspiro[3.3]hpetan-6-yl}methyl)-2,6-dimethyl-4-[5-(trifluoromethyl)pyrazin-2-yl]piperazine-1-carboxamide] and `C[C@@H]1CN(c2cnc(C(F)(F)F)cn2)C[C@@H](C)N1C(=O)OCC1CC2(C1)CN(Cc1ccccc1)C2` [Compound 143, {2-benzyl-2-azaspiro[3.3]heptan-6-yl}methyl (2R,6R)-2,6-dimethyl-4-[5-(trifluoromethyl)pyrazin-2-yl]piperazine-1-carboxylate] fall in the same range of Ki: 100 to 1000 nM for the first, 100 to 1000 nM for the second.

`C[C@@H]1CN(c2nc3ccc(C(F)(F)F)cc3s2)C[C@H](C)N1C(=O)NC1CC2(C1)CN(Cc1ccccc1)C2` [Compound 216, (2R,6S)-N-{2-benzyl-2-azaspiro[3.3]heptan-6-yl}-2,6-dimethyl-4-[6-(trifluoromethyl)-1,3-benzothiazol-2-yl)piperazine-1-carboxamide] and `C[C@@H]1CN(c2nc3ccc(C(F)(F)F)cc3s2)C[C@@H](C)N1C(=O)NC1CC2(C1)CN(Cc1ccccc1)C2` [Compound 217, (2R,6R)-N-{2-benzyl-2-azaspiro[3.3]heptan-6-yl}-2,6-dimethyl-4-[6-(trifluoromethyl)-1,3-benzothiazol-2-yl]piperazine-1-carboxamide] cannot be ordered by Ki: less than 10 nM for the first, less than 10 nM for the second.

First: C[C@@H]1CN(c2ncc(C(F)(F)F)cn2)C[C@@H](C)N1C(=O)OC1(C(F)F)CC2(CN(Cc3ccccc3)C2)C1 [Compound 344, 2-benzyl-6-(difluoromethyl)-2-azaspiro[3.3]heptan-6-yl (2R,6R)-2,6-dimethyl-4-[5-(trifluoromethyl)pyrimidin-2-yl]piperazine-1-carboxylate]
Second: COC(=O)c1cnc(N2C[C@@H](C)N(C(=O)OC3CC4(C3)CN(Cc3ccccc3)C4)[C@H](C)C2)nc1C(F)(F)F [Compound 171, methyl 2-[(3R,5R)-4-[({2-benzyl-2-azaspiro[3.3]heptan-6-yl}oxy)carbonyl]-3,5-dimethylpiperazin-1-yl]-4-(trifluoromethyl)pyrimidine-5-carboxylate]
The Ki of the first is higher: 10 to 100 nM for the first, less than 10 nM for the second. The second binds more tightly here.

First: CCOc1ccc(N2C[C@@H](C)N(C(=O)NC3CC4(C3)CN(Cc3ccccc3)C4)[C@@H](C)C2)cc1 [Compound 284, (2R,6S)-N-{2-benzyl-2-azaspiro[3.3]heptan-6-yl}-4-(4-ethoxyphenyl)-2,6-dimethylpiperazine-1-carboxamide]
Second: COc1ccc2nc(N3C[C@@H](C)N(C(=O)NC4CC5(C4)CN(Cc4ccccc4)C5)[C@H](C)C3)cnc2c1 [Compound 219, (2R,6R)-N-{2-benzyl-2-azaspiro[3.3]heptan-6-yl}-4-(6-methoxyquinoxalin-2-yl)-2,6-dimethylpiperazine-1-carboxamide]
The Ki of the first is higher: 100 to 1000 nM for the first, 10 to 100 nM for the second. The second binds more tightly here.

First: C[C@@H]1CN(c2ncc(C(F)(F)F)cn2)C[C@H](C)N1C(=O)NC1CC2(C1)CN(CC1CC(F)(F)C1)C2 [Compound 333, (2R,6S)-N-{2-[(3,3-difluorocyclobutyl)methyl]-2-azaspiro[3.3]heptan-6-yl}-2,6-dimethyl-4-[5-(trifluoromethyl)pyrimidin-2-yl]piperazine-1-carboxamide]
Second: C[C@@H]1CN(c2ncc(C(F)(F)F)cn2)C[C@H](C)N1C(=O)NC1CC2(C1)CN(CC1=CCCCC1)C2 [Compound 313, (2R,6S)-N-[2-(cyclohex-1-en-1-ylmethyl)-2-azaspiro[3.3]heptan-6-yl]-2,6-dimethyl-4-[5-(trifluoromethyl)pyrimidin-2-yl]piperazine-1-carboxamide]
The Ki of the first is higher: 100 to 1000 nM for the first, 10 to 100 nM for the second. The second binds more tightly here.

First: C[C@@H]1CN(c2cnc3ccccc3n2)[C@@H](C)CN1C(=O)OC1CC2(C1)CN(Cc1ccccc1)C2 [Compound 187, 2-benzyl-2-azaspiro[3.3]heptan-6-yl (2R,5S)-2,5-dimethyl-4-(quinoxalin-2-yl)piperazine-1-carboxylate]
Second: C[C@@H]1CN(c2cnc(C(F)(F)F)cn2)[C@@H](C)CN1C(=O)NC1CC2(C1)CN(Cc1ccccc1)C2 [Compound 35, (2R,5S)-N-{2-benzyl-2-azaspiro[3.3]heptan-6-yl}-2,5-dimethyl-4-[5-(trifluoromethyl)pyrazin-2-yl]piperazine-1-carboxamide]
The Ki of the first is lower: less than 10 nM for the first, 10 to 100 nM for the second.

First: CSc1nc(N2C[C@@H](C)N(C(=O)OC3CC4(C3)CN(Cc3ccccc3)C4)[C@H](C)C2)ncc1Br [Compound 170, 2-benzyl-2-azaspiro[3.3]heptan-6-yl (2R,6R)-4-[5-bromo-4-(methylsulfanyl)pyrimidin-2-yl]-2,6-dimethylpiperazine-1-carboxylate]
Second: C[C@@H]1CN(c2ncc(C(=O)N(C)C)cn2)C[C@H](C)N1C(=O)OC1CC2(C1)CN(Cc1ccccc1)C2 [Compound 489, 2-benzyl-2-azaspiro[3.3]heptan-6-yl (2R,6S)-4-[5-(dimethylcarbamoyl)pyimidin-2-yl]-2,6-dimethylpiperazine-1-carboxylate]
The Ki of the first is lower: 10 to 100 nM for the first, 100 to 1000 nM for the second. The first binds more tightly here.

`C[C@@H]1CN(C(=O)NC2CC3(C2)CN(Cc2ccccc2)C3)[C@@H](C)CN1c1cnc(C(F)(F)F)cn1` [Compound 37, (2S,5R)-N-{2-benzyl-2-azaspiro[3.3]heptan-6-yl}-2,5-dimethyl-4-[5-(trifluoromethyl)pyrazin-2-yl)piperazine-1-carboxamide] and `C[C@@H]1CN(c2nc3ccc(C(F)(F)F)cc3s2)C[C@@H](C)N1C(=O)OC1CC2(C1)CN(Cc1ccc(F)cc1)C2` [Compound 385, 2-[(4-fluorophenyl)methyl]-2-azaspiro[3.3]heptan-6-yl (2R,6R)-2,6-dimethyl-4-[6-(trifluoromethyl)-1,3-benzothiazol-2-yl]piperazine-1-carboxylate] fall in the same range of Ki: 10 to 100 nM for the first, 10 to 100 nM for the second.
